Test [1] addresses T1, HsSQS (Homo sapiens, UniProt P37268).
T1 construct: His-tag; made in house
T1 sequence (P37268 1-417): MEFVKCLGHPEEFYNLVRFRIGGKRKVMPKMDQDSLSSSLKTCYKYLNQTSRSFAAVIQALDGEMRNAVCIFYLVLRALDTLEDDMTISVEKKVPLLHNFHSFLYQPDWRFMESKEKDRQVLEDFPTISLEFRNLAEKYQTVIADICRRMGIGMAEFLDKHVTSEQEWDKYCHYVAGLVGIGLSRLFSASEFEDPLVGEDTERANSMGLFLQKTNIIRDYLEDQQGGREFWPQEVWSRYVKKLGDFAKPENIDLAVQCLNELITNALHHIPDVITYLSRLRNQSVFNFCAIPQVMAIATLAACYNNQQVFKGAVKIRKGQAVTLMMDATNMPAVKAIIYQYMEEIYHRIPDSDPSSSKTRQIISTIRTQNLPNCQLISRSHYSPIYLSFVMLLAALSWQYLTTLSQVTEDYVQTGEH
Details: method as in PMID 1464749. The note with it: cited from earlier work.

Test [2] relates to T. cruzi epimastigotes. The experiment in a line: Sterol composition of T. cruzi epimastigotes, GC-MS. The note with it: 4 µM compound. The format is cell-based, Trypanosoma cruzi. On the procedure:
. Cells from cultures (96 h incubation) were washed with Buffer A with glucose (116 mM NaCl, 5.4 mM KCl, 0.8 mM MgSO4, 5.5 mM D-glucose, and 50 mM HEPES at pH 7.0) then pelleted and chloroform/methanol (2∶1 v/v) added (∼30 mL of solvent per gram of wet cells) followed by vigorous stirring and overnight incubation at 4°C. The extract was then filtered using Whatman #2 paper to eliminate insoluble material, and the filtrate (a single phase) dried under nitrogen. The extract was then re-extracted using chloroform/methanol 9/1 v/v, dried under nitrogen, dissolved in 1 mL of pure chloroform and re-dried under nitrogen gas. The extracted lipids were saponified with 5 mL of ethanolic-potassium hydroxide (5 g KOH, 7 mL water, 14 mL ethanol) for 1 hour at 80°C. After cooling, 2.5 mL of water and 1.5 mL hexane were added and the phases allowed to separate. […] Samples were analyzed on a 30 m DB5 column with 0.32 mm I.D. and 0.25 µm film thickness (Agilent Inc, Palo Alto, CA, USA) with an injection port temperature of 300°C, the interface was set to 300°C, the ion source adjusted to 230°C, MS Quadrupole 150°C. […] The spectra of all chromatogram peaks were evaluated by using the HP Chemstation (Agilent, Palo Alto, CA, USA) program. Identifications and quantifications were performed using mass spectra obtained from authentic standards and with NIST08 and W8N08 libraries (John Wiley & Sons, Inc., USA).

The subject of test [3] is Vero cells. Briefly: Vero (host) cell proliferation, alamarBlue. The note with it: read-out: IC50 Vero cells (host cell growth). The format is cell-based. The procedure:
Vero cells (1.7×10^4 cells/well) were seeded in 96 well plates (black, clear bottom from Greiner Bio-One Cat#655090) in 100 µL RPMI media (Sigma Cat# R-4130) with 10% FBS. Plates were tested as described by Recher et al.
(Resazurin is reduced to fluorescent resorufin, in cell work by metabolically active cells.)

Test [4] has as its system T. cruzi epimastigotes. Briefly: UQ9 biosynthesis in epimastigotes, LC-MS. The format is cell-based, Trypanosoma cruzi. The procedure: For ubiquinone extraction, epimastigotes (1 g wet weight) were washed twice with buffer A with glucose (116 mM NaCl, 5.4 mM KCl, 0.8 mM MgSO4, 5.5 mM D-glucose, and 50 mM HEPES at pH 7.0). To break the cells, the pellets were frozen in a dry ice-100% ethanol bath (for 7 min) and thawed at 37°C (for 3 min) for a total of 5 times. One volume of water and three volumes of 1-propanol were added to the pellet. The samples were vortexed for 30 sec at room temperature and allowed to stand for one minute. Two volumes of n-hexane were added, the mixture vortexed for 30 sec at room temperature, then centrifuged at 12,000× g for 5 min. The upper phase, containing ubiquinone, was collected into a glass tube, and dried under nitrogen gas, then analyzed using LC-MS.
LC/MS was performed using an Agilent LC/MSD Trap XCT Plus system (Agilent Technologies, Santa Clara, CA) with an 1100 series HPLC system including a degasser, an auto-sampler, a binary pump, and a multiple-wavelength detector. The LC separation used a Phenomenex Gemini 3u C18 110A column (2 mm×100 mm) (Torrence, CA) with mobile phase A (0.1% formic acid in water) and mobile phase B (0.1% formic acid in acetonitrile). The flow-rate was 0.25 mL/min. The linear gradient was as follows: 0–1 min, 100% A; 7–50 min, 0% A; 51–56 min, 100% A. The auto-sampler was set at 5°C and the injection volume was 15 µL. UV signals were recorded at 275 nm. […]

Test [5] concerns T. cruzi. Briefly: Rescue from T. cruzi cell growth inhibition by farnesol or geranylgeraniol. The format is cell-based, Trypanosoma cruzi.
Test [6] relates to T. cruzi amastigotes. Briefly: T. cruzi amastigote cell growth inhibition in Vero cells. The format is cell-based, Trypanosoma cruzi. The note with it: means ± SD from 2 or 3 independent experiments, day 3 post-infection. On the procedure:
Gamma-irradiated (2,000 Rads) Vero cells (3.4×10^4 cells/well) were seeded in 96 well plates (black, clear bottom plates from Greiner Bio-One) in 100 µL RPMI media (Sigma) with 10% FBS. Plates were incubated overnight at 35°C and 7% CO2. […] After infection, cells were washed once with Hanks solution (150 µL/well) to eliminate any extracellular parasites, and compounds were added in serial dilutions in RPMI media in 150 µL volumes. Each dilution was tested in quadruplicate. Each plate also contained controls with host cells and no parasites (for a background check), and controls with parasites and no drugs (positive control). […] For each set of experiments, benznidazole was used as a positive control. After drug addition, plates were incubated at 35°C and 7% CO2. At day 3 post-infection, plates were assayed for fluorescence and IC50 values were determined by non-linear regression analysis using SigmaPlot.

For test [7], the target named is T1, HsSQS. The experiment in a line: Human squalene synthase inhibition. The format is biochemical. The procedure:
(§1) Initial SQS enzyme inhibition assays were carried out, in duplicate, in 96-well plates, with a total of 200 µL of reaction mixture in each well. Reactions were monitored by using a continuous spectrophotometric assay for phosphate releasing enzymes. […] The compounds investigated were pre-incubated with 2 µg of SQS for 30 min at 20°C. The IC50 values were obtained by fitting the inhibition data to a normal dose–response curve, using GraphPad PRISM, version 4.0, software for Windows (GraphPad Software Inc., San Diego, CA, www.graphpad.com). We then verified the results by using a radioactivity assay using ^3H-labelled FPP as substrate. […] The enzymes were incubated with inhibitor for 10 minutes before addition of the substrates. The reaction was allowed to continue at 37°C for 15 minutes and then terminated with 50 µL of 0.1 M NaOH/methanol. The product was extracted with 500 µL of hexanes and 300 µL of the organic layer was measured by scintillation counting.

Test [8] deals with T2, TcFPPS (Trypanosoma cruzi, UniProt Q95WL3).
T2 sequence (Q95WL3 1-362): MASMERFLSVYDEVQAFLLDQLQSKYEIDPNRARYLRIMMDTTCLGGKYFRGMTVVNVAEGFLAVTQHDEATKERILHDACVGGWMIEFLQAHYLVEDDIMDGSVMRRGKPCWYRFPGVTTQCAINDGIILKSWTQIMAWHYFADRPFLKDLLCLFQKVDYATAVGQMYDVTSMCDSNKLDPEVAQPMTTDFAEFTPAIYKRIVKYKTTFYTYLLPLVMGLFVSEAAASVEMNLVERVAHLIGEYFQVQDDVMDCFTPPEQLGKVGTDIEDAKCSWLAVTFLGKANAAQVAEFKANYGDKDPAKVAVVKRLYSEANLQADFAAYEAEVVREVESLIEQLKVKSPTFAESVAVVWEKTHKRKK
The experiment in a line: T. cruzi FPPS inhibition. The format is biochemical. On the procedure:
For FPPS inhibition we used the methods described previously. The condensation of geranyl diphosphate (100 µM) and isopentenyl diphosphate (100 µM) was monitored at room temperature by using a continuous spectrophotometric assay for phosphate releasing enzymes. The reaction buffer contained 50 mM Tris-HCl, pH 7.4, 1 mM MgCl2, and 0.01% Triton X100. The compounds investigated were pre-incubated with enzyme for 30 min at room temperature. The IC50 values were obtained from fitting dose-response curve using Prism 4.0 (GraphPad Software, Inc., La Jolla, CA, www.graphpad.com).

The target in test [9] is TcSQS (Trypanosoma cruzi, UniProt Q4CWB4). Briefly: biochemical. The format is biochemical. On the procedure:
as §1

Test [10] has as its system LmSQS. Details: method as in PMID 18765694. The note with it: cited from earlier work.

Read-outs that look alike come from different tables or passages of the source.

TcSQS, sequence (Q4CWB4 entry or part of it): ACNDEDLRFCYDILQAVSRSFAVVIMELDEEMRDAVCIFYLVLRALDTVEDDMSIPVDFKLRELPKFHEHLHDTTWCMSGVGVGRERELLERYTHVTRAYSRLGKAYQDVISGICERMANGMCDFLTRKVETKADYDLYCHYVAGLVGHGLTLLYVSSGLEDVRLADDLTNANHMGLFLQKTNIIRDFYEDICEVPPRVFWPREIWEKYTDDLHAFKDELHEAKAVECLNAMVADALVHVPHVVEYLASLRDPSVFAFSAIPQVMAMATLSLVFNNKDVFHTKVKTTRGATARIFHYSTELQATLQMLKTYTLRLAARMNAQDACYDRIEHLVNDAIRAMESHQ

Consider `CCCCCN(C)CCC(O)(P(=O)(O)O)P(=O)(O)O` [ibandronate], for which, in [1], the “K i values, human SQS” value is recorded as “low nM”.

For `CCCCCCCCCC[n+]1ccn(CC(P(=O)([O-])O)P(=O)(O)O)c1` (stereo not drawn) [BPH-1218], the “endogenous ergosterol and the three major ergosterol related sterols, % of total sterols” value in test [2] (without compound 36%) is reported as 15%. Besides, the “content of exogeneously-acquired cholesterol, % of total sterols” value in test [2] (without compound 51%) was determined as 71%. Further, the IC50 in test [3] (Chlorocebus sabaeus, Vero) is around 1 mM. Moreover, the “decrease in UQ9 biosynthesis” value in [4] is listed as around 40%. For the same compound, the “rescue afforded by farnesol” value in test [5] is “no “rescue””. For the same compound, the rescue by geranylgeraniol in test [5] (geranylgeraniol at 40 µM) is given as around 20%.

Regarding `O=P(O)(O)C(NC1CCCCCC1)P(=O)(O)O` [incadronate], in test [1], the “K i values, human SQS” value was “low nM”.

Take `CCCCCCCCCCCCCC[n+]1ccn(CC(P(=O)([O-])O)P(=O)(O)O)c1` (stereo not drawn) [BPH-1219]: the IC50 in test [6] is 0.8 ± 0.3 µM; in [7] it was 0.29 µM; in test [3] (in mM) it was around 1 mM; in test [8], above 5 µM; in test [9], 0.12 µM.

Regarding `COCCCOc1ccc(C#C[C@@]2(O)CN3CCC2CC3)c(Cc2ccccc2)n1` [ER119884], the “inhibition of LmSQS” value in [10] was “nanomolar/sub-nanomolar range”.

For the compound `CCCCCCCCCCCCCCCn1cc[n+](CC(P(=O)([O-])O)P(=O)(O)O)c1` (stereo not drawn) [BPH-1344], the IC50 is 1 ± 0.1 µM in test [6] (Trypanosoma cruzi, Vero, 72 h); 0.26 µM in [7]; around 1 mM in [3] (Chlorocebus sabaeus, Vero); above 5 µM in test [8]; 0.14 µM in test [9].

In the case of `CCCCCCCCCCCCC[n+]1ccn(CC(P(=O)([O-])O)P(=O)(O)O)c1` (stereo not drawn) [BPH-1329], the IC50 is 1.1 ± 0.1 µM in [6]; 0.22 µM in test [7]; around 1 mM in test [3] (in mM); 0.91 µM in [8]; 0.058 µM in test [9].

With `CCCCCCCCC[n+]1ccn(CC(P(=O)([O-])O)P(=O)(O)O)c1` (stereo not drawn) [BPH-1327], the 50% inhibitory concentration (IC50) in [6] is 10 ± 2 µM; in test [7], 0.1 µM; in test [3] (in mM) it was around 1 mM; in test [8], 0.085 µM; in [9], 0.016 µM.

On to `CO[C@H]1CN(c2ccc(C#C[C@@]3(O)CN4CCC3CC4)c(Cc3ccccc3)n2)C[C@H]1O` [E5700], for which, in [10], the “inhibition of LmSQS” value was “nanomolar/sub-nanomolar range”.

In general, IC50 refers to the concentration at which inhibition is half-maximal.

Values taken from PMC4006925, “Squalene Synthase As a Target for Chagas Disease Therapeutics” (PLoS Pathogens, 2014).
